Here are results for seven compounds from US11186541B2, “Potent inhibitors of aspartate N-acetyl-transferase for the treatment of Canavan disease” (The University of Toledo, priority 2016, dated 2021).

For the first assay, the target named is T1, Recombinant maltose-binding protein-human aspartate N-acetyltransferase (MBP-ANAT) fusion enzyme (Homo sapiens, UniProt Q8N9F0).
T1 construct: His tag (C); made in house; host or cells: E. coli NiCo21(DE3)
T1 sequence (Q8N9F0 1-302): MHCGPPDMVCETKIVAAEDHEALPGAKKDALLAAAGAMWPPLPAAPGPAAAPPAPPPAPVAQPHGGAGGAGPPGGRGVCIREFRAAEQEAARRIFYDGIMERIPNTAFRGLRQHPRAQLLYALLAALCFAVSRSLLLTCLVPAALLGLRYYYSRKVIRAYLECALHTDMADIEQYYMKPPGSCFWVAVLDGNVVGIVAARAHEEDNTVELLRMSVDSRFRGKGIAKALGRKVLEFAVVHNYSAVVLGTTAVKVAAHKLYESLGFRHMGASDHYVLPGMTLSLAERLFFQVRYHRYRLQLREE
Nature of the assay: ANAT activity, DTNB-based assay (inhibitor screening and kinetic evaluation). In kind it is biochemical.
Settings: not given
The source says:
ANAT is difficult to purify. […] This can be accomplished, for example, as described in U.S. Provisional Patent Application No. 62/216,700, which is incorporated herein by reference for all purposes. […] An optimized thiol detection assay can be used to kinetically characterize this newly produced enzyme form.
Recombinant maltose-binding protein-human aspartate N-acetyltransferase (MBP-ANAT) fusion enzyme was expressed and purified as described in U.S. Provisional Patent Application No. 62/216,700. Briefly, NiCo21(DE3) competent E. coli cells (New England Biolabs, Ipswich, Mass.) were transformed with an MBP-ANAT-his construct and selected on LB plates with 30 μg/ml kanamycin. Colonies from these plates were used to inoculate starter cultures in LB media. After diluting each starter culture by 100-fold in 1 L of LB media, cell growth was continued for about 2 hours at 37° C. until A600 reached 0.6. IPTG was then added to a final concentration of 0.5 mM, and protein expression was induced at 16° C. for 20 hours. To purify MBP-ANAT, a Ni Sepharose 6 Fast Flow column (GE healthcare, Pittsburgh, Pa.) was equilibrated with Buffer A (20 mM potassium phosphate, pH 7.4, 300 mM sodium chloride, 10% glycerol, and 20 mM imidazole). Cell lysate was loaded on to the column and partially purified ANAT was then eluted with a linear gradient of Buffer B (buffer A containing 400 mM imidazole). The active fractions were pooled and loaded onto an amylose column and highly purified ANAT fusion was then obtained by elution with a 0-10 mM linear maltose gradient. ANAT activity was measured by an established DTNB-based assay using a SpectraMax 190 spectrophotometer plate reader (Molecular Devices, Calif.). A typical activity assay contained 20 mM HEPES, pH 7.4, 150 mM NaCl, 5% glycerol, 40 μM DTNB, 40 μM acetyl-CoA, and 2 mM L-aspartate in a total volume of 200 μl. Reaction was monitored at 412 nm (ε=14.15 mM^−1 cm^−1) for at least 15 minutes.
Three different compound libraries were used for initial screening of ANAT inhibitors. These small compound libraries were assembled in-house: an amino acids library contained 96 compounds, a metabolite library contained 96 compounds, and a second amino acids library contained 64 compounds. An additional constrained analogs library contained 77 compounds that were purchased from commercial sources.
Turning to `O=C(O)C[C@H](NC(=O)OCc1ccccc1)C(=O)O` [N-[(benzyloxy)carbonyl]-L-aspartic acid], the “ANAT inhibitor potency (in words)” value was “surprisingly high potency”.
Same read-out and setting: with `NC(=O)[C@@H](N)CC(=O)O` [L-aspartic acid amide] the entry was “neither alternative substrates nor inhibitors”.

The assay is the same for the next values; noted with them: read-out: inhibition constant against ANAT.
Turning to `O=C1CC[C@H](C(=O)O)N1` [2-D-pyroglutamic acid], the Ki is > 2 mM.
Same read-out and setting: with `O=C(O)C[C@H](NC(=O)c1ccccc1)C(=O)O` [comparable L-aspartate derivative, sodium N-benzoyl-L-aspartate] the figure was > 2 mM.
Same read-out and setting: with `O=C(O)c1cc(-c2ccccc2F)no1` [3-(2-fluoro-phenyl)-isoxazole-5-carboxylic acid] the figure was > 2 mM.
`Cc1noc(-c2cccc(C(=O)O)c2)n1` [3-(3-methyl-1,2,4-oxadiazol-5-yl-benzoic acid]: the Ki was > 2 mM.
For `O=C(O)CC[C@H](NC(=O)c1ccccc1)C(=O)O` [N-benzoyl-L-glutamate], the Ki is 0.13 mM.
